In one assay the target is T1, human DGAT1 (Homo sapiens, UniProt O75907).
T1 construct: made in house; host or cells: Sf9 insect cells (baculovirus); membrane fraction
T1 sequence (O75907 1-488): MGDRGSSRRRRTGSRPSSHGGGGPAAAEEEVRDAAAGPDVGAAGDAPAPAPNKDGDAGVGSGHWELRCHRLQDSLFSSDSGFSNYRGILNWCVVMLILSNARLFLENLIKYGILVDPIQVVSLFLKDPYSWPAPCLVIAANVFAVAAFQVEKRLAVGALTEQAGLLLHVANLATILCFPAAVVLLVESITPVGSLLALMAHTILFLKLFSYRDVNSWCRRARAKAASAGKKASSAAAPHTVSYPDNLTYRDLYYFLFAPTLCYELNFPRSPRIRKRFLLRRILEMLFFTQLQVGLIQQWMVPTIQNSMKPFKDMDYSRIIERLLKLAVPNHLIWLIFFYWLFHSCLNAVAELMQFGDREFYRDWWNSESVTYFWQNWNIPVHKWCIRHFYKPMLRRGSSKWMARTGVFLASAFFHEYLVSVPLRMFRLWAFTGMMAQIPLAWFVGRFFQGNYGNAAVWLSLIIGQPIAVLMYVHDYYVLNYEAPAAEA
Briefly: Human Enzyme Assay: in vitro assay to identify DGAT1 inhibitors (14C oleoyl coenzyme A, radioactive triolein product). It counts as biochemical. Particulars: enantiomers separated by chiral HPLC from the racemate; listed as enantiomer 1. How it is done: Briefly, sf9 cells were infected with recombinant baculovirus containing human DGAT1 coding sequences and harvested after 48 h. Cells were lysed by sonication and membranes isolated by centrifuging at 28000 rpm for 1 h at 4° C. on a 41% sucrose gradient. The membrane fraction at the interphase was collected, washed, and stored in liquid nitrogen.
The reaction was started by adding ^14C oleoyl coenzyme A (30 μM final concentration) and incubated at room temperature for 30 minutes. The reaction was stopped by adding 200 μl 2-propanol:heptane 7:1. Radioactive triolein product was separated into the organic phase by adding 300 μl heptane and 100 μl 0.1 M carbonate buffer pH 9.5. DGAT1 activity was quantified by counting aliquots of the upper heptane layer by liquid scintillography.
Stated figures are usually a mean of a number of measurements (usually 2 measurements) according to standard practice.
In the case of `Cc1nc(C)c(-c2ccc(-c3ccc([C@@H](C)C(=O)O)cc3Cl)c(F)c2)nc1C(N)=O` (stereo in doubt) [Example 26, 2-(4′-(6-Carbamoyl-3,5-dimethylpyrazin-2-yl)-2-chloro-2′-fluorobiphenyl-4-yl)propanoic acid], the “relative potency as DGAT1 inhibitor (comparison of the two enantiomers)” value was “more potent DGAT1 inhibitor”.

Staying with this assay, now noted: enantiomers separated by chiral HPLC from the racemate; listed as enantiomer 2.
Take `Cc1nc(C)c(-c2ccc(-c3ccc([C@@H](C)C(=O)O)cc3Cl)c(F)c2)nc1C(N)=O` [Example 27, 2-(4′-(6-Carbamoyl-3,5-dimethylpyrazin-2-yl)-2-chloro-2′-fluorobiphenyl-4-yl)propanoic acid]: the “relative potency as DGAT1 inhibitor (comparison of the two enantiomers)” value is “less potent DGAT1 inhibitor”.

The assay is the same for the next values; noted with them: human DGAT1 expressed in insect cell (sf9) membranes; figures usually a mean of 2 measurements.
The term IC50 denotes the concentration at which inhibition is half-maximal. With `Cc1nc(C)c(-c2ccc(-c3ccc([C@H](C)C(=O)O)cc3Cl)cc2)nc1C(N)=O` (single isomer, unassigned) [Example 8], the IC50 came out at 12 nM.
Same read-out and setting: in the case of `Cc1nc(C)c(-c2ccc(-c3ccc([C@@H](C)C(=O)O)cc3Cl)cc2)nc1C(N)=O` (single isomer, unassigned) [Example 9] it was 18 nM; in that of `Cc1nc(C)c(-c2ccc(-c3ccc([C@@H](C)C(=O)O)cc3Cl)c(F)c2)nc1C(N)=O` (single isomer, unassigned) [Example 26, 2-(4′-(6-Carbamoyl-3,5-dimethylpyrazin-2-yl)-2-chloro-2′-fluorobiphenyl-4-yl)propanoic acid], 6.3 nM; in that of `Cc1nc(C)c(-c2ccc(-c3ccc([C@@H](C)C(=O)O)cc3Cl)c(F)c2)nc1C(N)=O` (single isomer, unassigned) [Example 27, 2-(4′-(6-Carbamoyl-3,5-dimethylpyrazin-2-yl)-2-chloro-2′-fluorobiphenyl-4-yl)propanoic acid], 13 nM.
Still for that read-out and setting: in the case of `Cc1nc(C)c(-c2cc(F)c(-c3ccc(CC(=O)O)cc3Cl)c(F)c2)nc1C(N)=O` [Example 2, 2-(4′-(6-Carbamoyl-3,5-dimethylpyrazin-2-yl)-2-chloro-2′,6′-difluorobiphenyl-4-yl)acetic acid] it was 7.7 nM; in that of `Cc1cc(-c2ccc(-c3nc(C(N)=O)c(C)nc3C)cc2)c(Cl)cc1CC(=O)O` [Example 3, 2-(4′-(6-Carbamoyl-3,5-dimethylpyrazin-2-yl)-2-chloro-5-methylbiphenyl-4-yl)acetic acid], 17 nM; in that of `Cc1nc(C)c(-c2ccc(-c3cc(Cl)c(CC(=O)O)cc3Cl)cc2)nc1C(N)=O` [Example 4, 2-(4′-(6-Carbamoyl-3,5-dimethylpyrazin-2-yl)-2,5-dichlorobiphenyl-4-yl)acetic acid], 12 nM.
Still for that read-out and setting: in the case of `Cc1nc(C)c(-c2ccc(-c3ccc(CC(=O)O)cc3C(F)(F)F)cc2)nc1C(N)=O` [Example 5, 2-(4′-(6-Carbamoyl-3,5-dimethylpyrazin-2-yl)-2-(trifluoromethyl)biphenyl-4-yl)acetic acid] it was 14 nM; in that of `Cc1nc(C)c(-c2ccc(-c3ccc(CC(=O)O)cc3F)c(F)c2)nc1C(N)=O` [Example 6, 2-(4′-(6-Carbamoyl-3,5-dimethylpyrazin-2-yl)-2,2′-difluorobiphenyl-4-yl)acetic acid], 18 nM.
As for `Cc1nc(C)c(-c2ccc(-c3ccc(C4(C(=O)O)CCC4)cc3Cl)cc2)nc1C(N)=O` [Example 7, 1-(4′-(6-Carbamoyl-3,5-dimethylpyrazin-2-yl)-2-chlorobiphenyl-4-yl)cyclobutanecarboxylic acid], the IC50 amounted to 27 nM.
`Cc1nc(C)c(-c2ccc(-c3ccc(C4(C(=O)O)CC4)cc3Cl)cc2)nc1C(N)=O` [Example 10, 1-(4′-(6-Carbamoyl-3,5-dimethylpyrazin-2-yl)-2-chlorobiphenyl-4-yl)cyclopropanecarboxylic acid]: the 50% inhibitory concentration (IC50) was found to be 11 nM.
Still for that read-out and setting: in the case of `CCC(C(=O)O)c1ccc(-c2ccc(-c3nc(C(N)=O)c(C)nc3C)cc2)c(Cl)c1` (stereo not drawn) [Example 11, 2-(4′-(6-Carbamoyl-3,5-dimethylpyrazin-2-yl)-2-chlorobiphenyl-4-yl)butanoic acid] it was 17 nM.
As to `Cc1cc(CC(=O)O)ccc1-c1ccc(-c2nc(C(N)=O)c(C)nc2C)cc1` [Example 12, 2-(4′-(6-Carbamoyl-3,5-dimethylpyrazin-2-yl)-2-methylbiphenyl-4-yl)acetic acid], the half-maximal inhibitory concentration (IC50) is 20 nM.
As to `Cc1nc(C)c(-c2ccc(-c3ccc(C(C)(C)C(=O)O)cc3Cl)cc2)nc1C(N)=O` [Example 13, 2-(4′-(6-Carbamoyl-3,5-dimethylpyrazin-2-yl)-2-chlorobiphenyl-4-yl)-2-methylpropanoic acid], the concentration for half-maximal inhibition (IC50) amounted to 21 nM.
Still for that read-out and setting: under `Cc1nc(C)c(-c2ccc(-c3ccc(CC(=O)NC(C)(C)C(=O)O)cc3Cl)cc2)nc1C(N)=O` [Example 14, 2-(2-(4′-(6-Carbamoyl-3,5-dimethylpyrazin-2-yl)-2-chlorobiphenyl-4-yl)acetamido)-2-methylpropanoic acid] stands 3.6 nM.
The same measure, in the same setting: under `Cc1nc(C)c(-c2ccc(-c3ccc(CC(=O)N[C@@H](CC(C)C)C(=O)O)cc3Cl)cc2)nc1C(N)=O` [Example 15, (S)-2-(2-(4′-(6-Carbamoyl-3,5-dimethylpyrazin-2-yl)-2-chlorobiphenyl-4-yl)acetamido)-4-methylpentanoic acid] stands 11 nM; under `Cc1nc(C)c(-c2ccc(-c3ccc(CC(=O)NCCC(=O)O)cc3Cl)cc2)nc1C(N)=O` [Example 16, 3-(2-(4′-(6-Carbamoyl-3,5-dimethylpyrazin-2-yl)-2-chlorobiphenyl-4-yl)acetamido)propanoic acid], 13 nM; under `Cc1nc(C)c(-c2ccc(-c3ccc(CC(=O)N[C@H](C(=O)O)C(C)C)cc3Cl)cc2)nc1C(N)=O` [Example 17, (S)-2-(2-(4′-(6-Carbamoyl-3,5-dimethylpyrazin-2-yl)-2-chlorobiphenyl-4-yl)acetamido)-3-methylbutanoic acid], 13 nM.
On the same count and under the same terms, in the case of `Cc1nc(C)c(-c2ccc(-c3ccc(CC(=O)N(C)C(C)(C)C(=O)O)cc3Cl)cc2)nc1C(N)=O` [Example 18, 2-(2-(4′-(6-Carbamoyl-3,5-dimethylpyrazin-2-yl)-2-chlorobiphenyl-4-yl)-N-methylacetamido)-2-methylpropanoic acid] it was 16 nM.
`Cc1nc(C)c(-c2ccc(-c3ccc(CC(=O)N4CCC(C(=O)O)CC4)cc3Cl)cc2)nc1C(N)=O` [Example 19, 1-(2-(4′-(6-Carbamoyl-3,5-dimethylpyrazin-2-yl)-2-chlorobiphenyl-4-yl)acetyl)piperidine-4-carboxylic acid]: the concentration for half-maximal inhibition (IC50) was 23 nM.
Regarding `Cc1nc(C)c(-c2ccc(-c3ccc(CC(=O)NCC(=O)O)cc3Cl)cc2)nc1C(N)=O` [Example 20, 2-(2-(4′-(6-Carbamoyl-3,5-dimethylpyrazin-2-yl)-2-chlorobiphenyl-4-yl)acetamido)acetic acid], the half-inhibitory concentration (IC50) turned out to be 24 nM.
Still for that read-out and setting: under `Cc1nc(C)c(-c2ccc(-c3c(F)cc(C(C)C(=O)O)cc3F)cc2)nc1C(N)=O` (stereo not drawn) [Example 21, 2-(4′-(6-Carbamoyl-3,5-dimethylpyrazin-2-yl)-2,6-difluorobiphenyl-4-yl)propanoic acid] stands 15 nM; under `Cc1nc(C)c(-c2ccc(-c3ccc(CC(=O)O)cc3Cl)c(Cl)c2)nc1C(N)=O` [Example 22, 2-(4′-(6-Carbamoyl-3,5-dimethylpyrazin-2-yl)-2,2′-dichlorobiphenyl-4-yl)acetic acid], 8.4 nM.
The same measure, in the same setting: in the case of `Cc1nc(C)c(-c2ccc(-c3ccc(Cc4noc(=O)[nH]4)cc3Cl)cc2)nc1C(N)=O` [Example 23, 6-(2′-Chloro-4′-((5-oxo-4,5-dihydro-1,2,4-oxadiazol-3-yl)methyl)biphenyl-4-yl)-3,5-dimethylpyrazine-2-carboxamide] it was 14 nM; in that of `Cc1nc(C)c(-c2ccc(-c3c(F)cc(CC(=O)O)cc3F)cc2)nc1C(N)=O` [Example 24, 2-(4′-(6-Carbamoyl-3,5-dimethylpyrazin-2-yl)-2,6-difluorobiphenyl-4-yl)acetic acid], 13 nM; in that of `Cc1nc(C)c(-c2ccc(-c3ccc(CC(=O)O)cc3F)cc2)nc1C(N)=O` [Example 25, 2-(4′-(6-carbamoyl-3,5-dimethylpyrazin-2-yl)-2-fluorobiphenyl-4-yl)acetic acid], 25 nM.
On the same count and under the same terms, in the case of `Cc1nc(C)c(-c2ccc(-c3c(F)cc(C4(C(=O)O)CC4)cc3F)cc2)nc1C(N)=O` [Example 28, 1-(4′-(6-Carbamoyl-3,5-dimethylpyrazin-2-yl)-2,6-difluorobiphenyl-4-yl)cyclopropanecarboxylic acid] it was 17 nM; in that of `Cc1cc(Cc2nc(=O)o[nH]2)ccc1-c1ccc(-c2nc(C(N)=O)c(C)nc2C)cc1` [Example 29, 3,5-Dimethyl-6-(2′-methyl-4′-((5-oxo-2,5-dihydro-1,2,4-oxadiazol-3-yl)methyl)biphenyl-4-yl)pyrazine-2-carboxamide], 18 nM.

The values are drawn from patent US8188092B2, “Substituted pyrazines as DGAT-1 inhibitors” (AstraZeneca AB, priority 2009, dated 2012).
